Assay [1] relates to DLD1 WT cells. The assay is described as follows: 7-day cell viability assay (CellTiter-Glo), DLD1 parental (WT). The settings on record: Homo sapiens, DLD-1, 168 h, n=2. It is filed as cell-based, human. A general note: Cellular ATP, detected with luciferase, serves as a proxy for viable cell number.
The target in assay [2] is biotinylated Avi-POLθ[2-894] (Homo sapiens (Human), UniProt O75417). Description: POLθ ATPase assay (ADP-Glo). The settings on record: n=2, read-out: Biochemical ATPase ADPGlo IC50. (ADP-Glo first removes unused ATP, then detects ADP through luciferase.)
Chain of biotinylated Avi-POLθ[2-894] (O75417 2-894): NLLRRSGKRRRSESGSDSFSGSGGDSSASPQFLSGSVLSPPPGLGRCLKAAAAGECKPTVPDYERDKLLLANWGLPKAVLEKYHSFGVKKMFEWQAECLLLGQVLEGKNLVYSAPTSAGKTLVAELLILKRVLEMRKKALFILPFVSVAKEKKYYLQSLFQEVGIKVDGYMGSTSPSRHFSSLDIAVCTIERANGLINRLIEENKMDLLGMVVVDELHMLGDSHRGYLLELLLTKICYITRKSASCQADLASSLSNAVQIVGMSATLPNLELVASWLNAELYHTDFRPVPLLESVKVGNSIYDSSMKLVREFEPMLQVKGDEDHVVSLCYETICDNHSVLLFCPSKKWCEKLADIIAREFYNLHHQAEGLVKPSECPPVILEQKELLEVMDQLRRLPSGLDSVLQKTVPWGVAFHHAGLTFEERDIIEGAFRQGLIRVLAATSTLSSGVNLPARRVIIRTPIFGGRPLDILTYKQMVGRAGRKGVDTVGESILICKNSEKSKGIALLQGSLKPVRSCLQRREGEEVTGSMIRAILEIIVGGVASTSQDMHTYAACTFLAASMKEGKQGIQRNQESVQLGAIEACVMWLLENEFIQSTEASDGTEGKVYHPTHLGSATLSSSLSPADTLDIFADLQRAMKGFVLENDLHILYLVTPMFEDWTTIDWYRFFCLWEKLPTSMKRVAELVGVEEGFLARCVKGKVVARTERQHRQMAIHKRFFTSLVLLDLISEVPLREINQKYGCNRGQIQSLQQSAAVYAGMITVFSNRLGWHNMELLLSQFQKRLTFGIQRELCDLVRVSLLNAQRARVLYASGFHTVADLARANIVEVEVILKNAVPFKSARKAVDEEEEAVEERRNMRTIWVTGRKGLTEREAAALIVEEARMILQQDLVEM
In assay [3] the test system is DLD1 BRCA2 (−/−) cells. Description: 7-day cell viability assay (CellTiter-Glo), DLD1 BRCA2 (−/−). It is filed as cell-based, human. Conditions: Homo sapiens, DLD-1, 168 h, n=2, read-out: Viability IC50 (uM) DLD1 BRCA2 null. Summed up:
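7-day growth assay in DLD1 cells with or without BRCA2; seeding densities chosen to keep log-linear growth. Compound: 10 uM top, 3-fold, 9 points. Endpoint: CTG ATP luminescence at RT.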

These results are taken from patent US20250230171A1 (MOMA Therapeutics, Inc., priority 2023, published 2025).

Like-named read-outs stand apart in the source and are kept apart here.

As to `COc1cnc(Cl)cc1-c1cc(C)ncc1C(=O)Nc1nc2c(s1)CN(C(=O)c1c(Cl)ccnc1OC)C2` [Example 460], the IC50 was in the range of 5 to 10 µM in assay [1] (7-day CellTiter-Glo); 0.001 to 0.015 µM in assay [2] (POLθ ATPase, ADP-Glo); 0.001 to 0.1 µM in assay [3] (7-day CellTiter-Glo).

For the molecule `COc1cnc(Cl)cc1-c1cc(C)ncc1C(=O)Nc1nc2c(s1)CN(C(=O)[C@H]1C[C@@H](OC(F)F)C1)C2` [Example 10, 2′-chloro-N-(5-((1s,3s)-3-(difluoromethoxy)cyclobutane-1-carbonyl)-5,6-dihydro-4H-pyrrolo[3,4-d]thiazol-2-yl)-5′-methoxy-6-methyl-[4,4′-bipyridine]-3-carboxamide], the IC50 in assay [1] (7-day viability) is no less than 10 µM; in assay [2] it was 0.001 to 0.015 µM; in assay [3] (7-day viability) it was 0.001 to 0.1 µM.

Regarding `COc1cnc(C(=O)N2Cc3nc(NC(=O)c4cnc(C)cc4-c4cc(Cl)ncc4OC)sc3C2)o1` [Example 79, 2′-chloro-5′-methoxy-N-(5-(5-methoxyoxazole-2-carbonyl)-5,6-dihydro-4H-pyrrolo[3,4-d]thiazol-2-yl)-6-methyl-[4,4′-bipyridine]-3-carboxamide], the IC50 in assay [1] (7-day viability) lay in the range of 0.5 to 2 µM; in assay [2] it was 0.001 to 0.015 µM; in assay [3] (7-day viability), 0.001 to 0.1 µM.

As to `COc1ccccc1-c1cc(C)ncc1C(=O)Nc1nc2c(s1)CN(Cc1ccccc1)CC2`, the IC50 in assay [1] (7-day viability) was 0.5 to 2 µM; in assay [2], no less than 0.9 µM; in assay [3] (7-day viability) it was 0.5 to 2 µM.

For `COc1ccc(C#N)cc1-c1cc(C)ncc1C(=O)Nc1nc2c(s1)CN(C(=O)c1cccc(C(F)F)c1)C2`, the concentration for half-maximal inhibition (IC50) in assay [1] (7-day CellTiter-Glo) is no less than 10 µM; in assay [2] (POLθ ATPase, ADP-Glo) it was 0.001 to 0.015 µM; in assay [3] (7-day CellTiter-Glo), 0.1 to 0.25 µM.

With `COc1cnc(Cl)cc1-c1cc(C)ncc1C(=O)Nc1nc2c(s1)CN(C(=O)c1c(Cl)cnn1C)C2` [Example 156], the results for the IC50 in assay [1] (7-day viability), in assay [2] and in assay [3] (7-day viability) were no less than 10 µM, 0.001 to 0.015 µM and 0.001 to 0.1 µM, respectively.

Regarding `COc1cnc(Cl)cc1-c1cc(C)ncc1C(=O)Nc1nc2c(s1)CN(C(=O)c1ncccc1C(F)F)C2` [Example 158], the IC50 is no less than 10 µM in assay [1] (7-day viability), 0.001 to 0.015 µM in assay [2] and 0.1 to 0.25 µM in assay [3] (7-day viability).

Turning to `COc1ccc(C#N)cc1-c1cc(C)ncc1C(=O)Nc1nc2c(s1)CN(S(=O)(=O)NCC(F)(F)F)C2`, the IC50 in assay [1] (7-day viability) is no less than 10 µM; in assay [2], 0.001 to 0.015 µM; in assay [3] (7-day viability) it was no less than 2 µM.

On to `COc1cnc(Cl)cc1-c1cc(C)ncc1C(=O)Nc1nc2c(s1)CN(C(=O)C1CC3(C1)CC(F)(F)C3)C2` [Example 64, 2′-chloro-N-(5-(6,6-difluorospiro[3.3]heptane-2-carbonyl)-5,6-dihydro-4H-pyrrolo[3,4-d]thiazol-2-yl)-5′-methoxy-6-methyl-[4,4′-bipyridine]-3-carboxamide], for which the IC50 in assay [1] (7-day viability) is 5 to 10 µM; in assay [2], 0.001 to 0.015 µM; in assay [3] (7-day viability) it was 0.001 to 0.1 µM.

For the molecule `CCCNS(=O)(=O)N1Cc2nc(NC(=O)c3cnc(C)cc3-c3cc(C#N)ccc3OC)sc2C1` [Example 270], the results for the IC50 in assay [1] (7-day viability), in assay [2] and in assay [3] (7-day viability) were no less than 10 µM, 0.001 to 0.015 µM and 0.5 to 2 µM, respectively.

Regarding `COc1cnc(Cl)cc1-c1cc(C)ncc1C(=O)Nc1nc2c(s1)CN(C(=O)c1cccnc1OC)C2` [Example 172], the 50% inhibitory concentration (IC50) is no less than 10 µM in assay [1] (7-day viability), 0.001 to 0.015 µM in assay [2] and 0.001 to 0.1 µM in assay [3] (7-day viability).

For the molecule `COc1ccncc1C(=O)N1Cc2nc(NC(=O)c3cnc(C)cc3-c3cc(Cl)ncc3OC)sc2C1` [Example 155], the IC50 is no less than 10 µM in assay [1] (7-day viability), 0.001 to 0.015 µM in assay [2] and 0.5 to 2 µM in assay [3] (7-day viability).

In the case of `COc1ccc(C#N)cc1-c1cc(C)ncc1C(=O)Nc1nc2c(s1)CN(C(=O)C1CC(OC(C)C)C1)C2` (racemic) [Example 166], the values for the IC50 in assay [1] (7-day viability), in assay [2] and in assay [3] (7-day viability) were no less than 10 µM, 0.001 to 0.015 µM and 0.25 to 0.5 µM, respectively.

Usually IC50 stands for the point on the concentration scale where inhibition reaches its midpoint.
